In patent US10004701B2, “Methods and compositions for treating infection” (UNIVERSITY OF ROCHESTER, priority 2012, dated 2018):
Where a name gives a salt, the structure may show the parent alone. Read-outs that look alike come from different tables or passages of the source.

Key:
Assay in all cases: AK assay 384-well format, Prestwick library screening
[1] = test system: K. pneumoniae; type: cell-based, Klebsiella pneumoniae; conditions: 50 μM final drug concentration; for fold induction at 50 µM: Klebsiella pneumoniae, 3 h; for AK-based Prestwick library screening result, K. pneumoniae (fold increase in extracellular AK activity): positive cutoff 3-fold increase
[2] = test system: S. aureus strain USA300-0114; type: cell-based, Staphylococcus aureus; conditions: 50 μM final drug concentration; for fold induction at 50 µM: Staphylococcus aureus, USA300, 3 h; for AK-based Prestwick library screening result, S. aureus (fold increase in extracellular AK activity): positive cutoff 3-fold increase
[3] = test system: E. cloacae; type: cell-based, Enterobacter cloacae; conditions: 50 μM final drug concentration; for fold induction at 50 µM: Enterobacter cloacae, 3 h; for AK-based Prestwick library screening result, E. cloacae (fold increase in extracellular AK activity): positive cutoff 3-fold increase
[4] = test system: P. aeruginosa; type: cell-based, Pseudomonas aeruginosa; conditions: 50 μM final drug concentration; for fold induction at 50 µM: Pseudomonas aeruginosa, 3 h; for AK-based Prestwick library screening result, P. aeruginosa (fold increase in extracellular AK activity): positive cutoff 3-fold increase
[5] = test system: E. faecium; type: cell-based, Enterococcus faecium; conditions: 50 μM final drug concentration; for fold induction at 50 µM: Enterococcus faecium, 3 h; for AK-based Prestwick library screening result, E. faecium (fold increase in extracellular AK activity): positive cutoff 3-fold increase
[6] = test system: E. coli; type: cell-based, Escherichia coli; conditions: 50 μM final drug concentration; for fold induction at 50 µM: Escherichia coli, 3 h
[7] = test system: A. baumannii strain 98-37-09; type: cell-based, Acinetobacter baumannii; conditions: 50 μM final drug concentration; for fold induction at 50 µM: Acinetobacter baumannii, 983709, 3 h; for AK-based Prestwick library screening result, A. baumannii (fold increase in extracellular AK activity): positive cutoff 3-fold increase
[8] = cutoff for positive-scoring molecules 3-fold increase

What does the source list for `CC1=C2[C@H]3OC(=O)[C@@H](C)[C@@H]3CC[C@@]2(C)C=CC1=O` [alpha-Santonin]?
fold induction at 50 µM ([1]; planktonic K. pneumoniae, […], read-out: AK-based Prestwick library screening result, K. pneumoniae (fold increase in extracellular AK activity)): 0.7; fold induction at 50 µM ([2]; planktonic S. aureus, […], read-out: AK-based Prestwick library screening result, S. aureus (fold increase in extracellular AK activity)): 0.9; fold induction at 50 µM ([3]; planktonic E. cloacae, […], read-out: AK-based Prestwick library screening result, E. cloacae (fold increase in extracellular AK activity)): 0.9; fold induction at 50 µM ([4]; planktonic P. aeruginosa, […], read-out: AK-based Prestwick library screening result, P. aeruginosa (fold increase in extracellular AK activity)): 0.9; fold induction at 50 µM ([5]; planktonic E. faecium, […], read-out: AK-based Prestwick library screening result, E. faecium (fold increase in extracellular AK activity)): 1; fold induction at 50 µM ([6]; planktonic E. coli, […], read-out: AK-based Prestwick library screening result, E. coli (fold increase in extracellular AK activity)): 0.8; fold induction at 50 µM ([7]; planktonic A. baumannii, […], read-out: AK-based Prestwick library screening result, A. baumannii (fold increase in extracellular AK activity)): 0.8

What does the source list for `N[C@@H]1CONC1=O` [D-cycloserine]?
AK-based Prestwick library screening result, K. pneumoniae (fold increase in extracellular AK activity) ([1]; planktonic K. pneumoniae): 1.1; AK-based Prestwick library screening result, S. aureus (fold increase in extracellular AK activity) ([2]; planktonic S. aureus): 1.4; AK-based Prestwick library screening result, E. cloacae (fold increase in extracellular AK activity) ([3]; planktonic E. cloacae): 1.2; AK-based Prestwick library screening result, P. aeruginosa (fold increase in extracellular AK activity) ([4]; planktonic P. aeruginosa): 1.2; AK-based Prestwick library screening result, E. faecium (fold increase in extracellular AK activity) ([5]; planktonic E. faecium): 1.2; AK-based Prestwick library screening result, E. coli (fold increase in extracellular AK activity) ([6]; planktonic E. coli, positive cutoff 3-fold increase): 1.4; AK-based Prestwick library screening result, A. baumannii (fold increase in extracellular AK activity) ([7]; planktonic A. baumannii): 1.0

Which fold induction at 50 µM ([1]; planktonic, […], read-out: AK-based Prestwick Library Screening Results, K. pneumoniae (fold increase in extracellular AK activity)) does the source give for `CNC[C@H](O)[C@@H](O)[C@H](O)[C@H](O)CO` [Meglumine] here?
Its fold induction at 50 µM is 0.7.

And the fold induction at 50 µM ([2]; planktonic, […], read-out: AK-based Prestwick Library Screening Results, S. aureus (fold increase in extracellular AK activity))?
The fold induction at 50 µM was 0.5.

What about the fold induction at 50 µM ([3]; planktonic, […], read-out: AK-based Prestwick Library Screening Results, E. cloacae (fold increase in extracellular AK activity)) of the same molecule?
The fold induction at 50 µM was 0.6.

What about the fold induction at 50 µM ([4]; planktonic, […], read-out: AK-based Prestwick Library Screening Results, P. aeruginosa (fold increase in extracellular AK activity)) of the same molecule?
The fold induction at 50 µM was 0.5.

And the fold induction at 50 µM ([5]; planktonic, […], read-out: AK-based Prestwick Library Screening Results, E. faecium (fold increase in extracellular AK activity))?
Its fold induction at 50 µM is 0.8.

And the fold induction at 50 µM ([6]; planktonic, […], read-out: AK-based Prestwick Library Screening Results, E. coli (fold increase in extracellular AK activity))?
The fold induction at 50 µM was 0.5.

What about the fold induction at 50 µM ([7]; planktonic, […], read-out: AK-based Prestwick Library Screening Results, A. baumannii (fold increase in extracellular AK activity)) of the same molecule?
Its fold induction at 50 µM is 0.5.

`CC(C)NCC(O)COc1ccc(COCCOC(C)C)cc1` (centres unmarked) [Bisoprolol fumarate] was tested. Which fold induction at 50 µM ([1]; planktonic K. pneumoniae, 384-well, cutoff for positive-scoring molecules 3-fold increase, read-out: AK-based Prestwick Library Screening Results: K. pneumoniae (increase in extracellular AK activity)) did it give?
Its fold induction at 50 µM is 0.5.

What about the fold induction at 50 µM ([2]; planktonic S. aureus, 384-well, cutoff for positive-scoring molecules 3-fold increase, read-out: AK-based Prestwick Library Screening Results: S. aureus (increase in extracellular AK activity)) of the same molecule?
Its fold induction at 50 µM is 0.6.

And the fold induction at 50 µM ([3]; planktonic E. cloacae, 384-well, cutoff for positive-scoring molecules 3-fold increase, read-out: AK-based Prestwick Library Screening Results: E. cloacae (increase in extracellular AK activity))?
The fold induction at 50 µM was 0.6.

And the fold induction at 50 µM ([4]; planktonic P. aeruginosa, 384-well, cutoff for positive-scoring molecules 3-fold increase, read-out: AK-based Prestwick Library Screening Results: P. aeruginosa (increase in extracellular AK activity))?
Its fold induction at 50 µM is 0.5.

What about the fold induction at 50 µM ([5]; planktonic E. faecium, 384-well, cutoff for positive-scoring molecules 3-fold increase, read-out: AK-based Prestwick Library Screening Results: E. faecium (increase in extracellular AK activity)) of the same molecule?
Its fold induction at 50 µM is 0.9.

What about the fold induction at 50 µM ([6]; planktonic E. coli, 384-well, cutoff for positive-scoring molecules 3-fold increase, read-out: AK-based Prestwick Library Screening Results: E. coli (increase in extracellular AK activity)) of the same molecule?
Its fold induction at 50 µM is 0.5.

And the fold induction at 50 µM ([7]; planktonic A. baumannii, 384-well, cutoff for positive-scoring molecules 3-fold increase, read-out: AK-based Prestwick Library Screening Results: A. baumannii (increase in extracellular AK activity))?
The fold induction at 50 µM was 0.5.

With `C[C@@H]1NC(=O)NC1=O` [Methylhydantoin-5-(L)] as the molecule, how does the “AK-based Prestwick Library Screening Results, K. pneumoniae (fold increase in extracellular AK activity)” value [1, 8] read?
Its value is 1.0.

What about the “AK-based Prestwick Library Screening Results, S. aureus (fold increase in extracellular AK activity)” value [2, 8] of the same molecule?
The value was 1.3.

And the “AK-based Prestwick Library Screening Results, E. cloacae (fold increase in extracellular AK activity)” value [3, 8]?
The value was 2.0.

What about the “AK-based Prestwick Library Screening Results, P. aeruginosa (fold increase in extracellular AK activity)” value [4, 8] of the same molecule?
Its value is 1.1.

What about the “AK-based Prestwick Library Screening Results, E. faecium (fold increase in extracellular AK activity)” value [5, 8] of the same molecule?
Its value is 1.1.

What about the “AK-based Prestwick Library Screening Results, E. coli (fold increase in extracellular AK activity)” value ([6]; […]) of the same molecule?
Its value is 1.4.

What about the “AK-based Prestwick Library Screening Results, A. baumannii (fold increase in extracellular AK activity)” value [7, 8] of the same molecule?
Its value is 1.0.

For `COc1c2c(nc3ccccc13)OC(C(C)(O)CO)C2` (centres unmarked) [Dubinidine], which “AK-based Prestwick library screening result, K. pneumoniae (fold increase in extracellular AK activity)” value ([1]; planktonic K. pneumoniae) is on record?
Its value is 0.9.

And the “AK-based Prestwick library screening result, S. aureus (fold increase in extracellular AK activity)” value ([2]; planktonic S. aureus)?
The value was 2.4.

What about the “AK-based Prestwick library screening result, E. cloacae (fold increase in extracellular AK activity)” value ([3]; planktonic E. cloacae) of the same molecule?
Its value is 1.3.

What about the “AK-based Prestwick library screening result, P. aeruginosa (fold increase in extracellular AK activity)” value ([4]; planktonic P. aeruginosa) of the same molecule?
The value was 1.0.

What about the “AK-based Prestwick library screening result, E. faecium (fold increase in extracellular AK activity)” value ([5]; planktonic E. faecium) of the same molecule?
The value was 1.0.

What about the “AK-based Prestwick library screening result, E. coli (fold increase in extracellular AK activity)” value ([6]; planktonic E. coli, […]) of the same molecule?
Its value is 1.4.

And the “AK-based Prestwick library screening result, A. baumannii (fold increase in extracellular AK activity)” value ([7]; planktonic A. baumannii)?
The value was 1.1.

Which fold induction at 50 µM ([1]; 384-well format, cutoff for positive-scoring molecules 3-fold increase, read-out: AK-based Prestwick Library Screening Results, K. pneumoniae (increase in extracellular AK activity)) does the source give for `COc1ccc([C@@H]2CC(=O)c3c(O)cc(O)cc3O2)cc1O` [Hesperetin] here?
The fold induction at 50 µM was 0.9.

What about the fold induction at 50 µM ([2]; 384-well format, cutoff for positive-scoring molecules 3-fold increase, read-out: AK-based Prestwick Library Screening Results, S. aureus (increase in extracellular AK activity)) of the same molecule?
The fold induction at 50 µM was 0.5.

And the fold induction at 50 µM ([3]; 384-well format, cutoff for positive-scoring molecules 3-fold increase, read-out: AK-based Prestwick Library Screening Results, E. cloacae (increase in extracellular AK activity))?
The fold induction at 50 µM was 1.3.

And the fold induction at 50 µM ([4]; 384-well format, cutoff for positive-scoring molecules 3-fold increase, read-out: AK-based Prestwick Library Screening Results, P. aeruginosa (increase in extracellular AK activity))?
Its fold induction at 50 µM is 0.9.

What about the fold induction at 50 µM ([5]; 384-well format, cutoff for positive-scoring molecules 3-fold increase, read-out: AK-based Prestwick Library Screening Results, E. faecium (increase in extracellular AK activity)) of the same molecule?
Its fold induction at 50 µM is 0.9.

What about the fold induction at 50 µM ([6]; 384-well format, cutoff for positive-scoring molecules 3-fold increase, read-out: AK-based Prestwick Library Screening Results, E. coli (increase in extracellular AK activity)) of the same molecule?
The fold induction at 50 µM was 1.1.

And the fold induction at 50 µM ([7]; 384-well format, cutoff for positive-scoring molecules 3-fold increase, read-out: AK-based Prestwick Library Screening Results, A. baumannii (increase in extracellular AK activity))?
The fold induction at 50 µM was 1.1.

Which fold induction at 50 µM ([1]; planktonic K. pneumoniae, cutoff for positive-scoring molecules 3-fold increase, read-out: AK-based Prestwick Library Screening Results, K. pneumoniae (increase in extracellular AK activity)) does the source give for `CC(C)N1CCN(c2ccc(OCC3COC(Cn4cncn4)(c4ccc(Cl)cc4Cl)O3)cc2)CC1` (centres unmarked) [Terconazole] here?
The fold induction at 50 µM was 0.7.

What about the fold induction at 50 µM ([2]; planktonic S. aureus, cutoff for positive-scoring molecules 3-fold increase, read-out: AK-based Prestwick Library Screening Results, S. aureus (increase in extracellular AK activity)) of the same molecule?
The fold induction at 50 µM was 0.6.

What about the fold induction at 50 µM ([3]; planktonic E. cloacae, cutoff for positive-scoring molecules 3-fold increase, read-out: AK-based Prestwick Library Screening Results, E. cloacae (increase in extracellular AK activity)) of the same molecule?
The fold induction at 50 µM was 0.9.

And the fold induction at 50 µM ([4]; planktonic P. aeruginosa, cutoff for positive-scoring molecules 3-fold increase, read-out: AK-based Prestwick Library Screening Results, P. aeruginosa (increase in extracellular AK activity))?
The fold induction at 50 µM was 0.8.

And the fold induction at 50 µM ([5]; planktonic E. faecium, cutoff for positive-scoring molecules 3-fold increase, read-out: AK-based Prestwick Library Screening Results, E. faecium (increase in extracellular AK activity))?
Its fold induction at 50 µM is 1.

What about the fold induction at 50 µM ([6]; planktonic E. coli, cutoff for positive-scoring molecules 3-fold increase, read-out: AK-based Prestwick Library Screening Results, E. coli (increase in extracellular AK activity)) of the same molecule?
Its fold induction at 50 µM is 0.9.

And the fold induction at 50 µM ([7]; planktonic A. baumannii, cutoff for positive-scoring molecules 3-fold increase, read-out: AK-based Prestwick Library Screening Results, A. baumannii (increase in extracellular AK activity))?
Its fold induction at 50 µM is 0.8.
